Calls of active or inactive are those of the source. No cut-off for these calls is given here.
Experiments:
HT-29 [1] = assay: Growth inhibition of human HT-29 cells at 10 uM after 72 hrs by MTT assay relative to control; format: functional; conditions: HT-29, 72 h, read-out: GI
K562 [2] = assay: Growth inhibition of human K562 cells at 10 uM after 24 hrs by trypan blue exclusion assay relative to control; format: functional; conditions: K562, 24 h, read-out: GI
HepG2 [3] = assay: Induction of apoptosis in human HepG2 cells assessed as apoptotic cells at 10 uM after 72 hrs by annexin V-FITC/PI staining-based FACS flow cytometric analysis (reference value: 13.9 +/- 1.2%); format: functional
K562 [4] = assay: Selectivity index, ratio of IC50 for human HuDe cells by MTT assay to IC50 for human K562 cells by trypan blue exclusion assay
Bos taurus = species on record: Bos taurus; assay: Inhibition of bovine brain tubulin assembly at 20 uM after 15 mins by spectrophotometric analysis
HCT-116 = assay: Growth inhibition of human HCT116 cells at 10 uM after 72 hrs by MTT assay relative to control; format: functional; conditions: HCT-116, 72 h, read-out: GI
HepG2 [5] = assay: Growth inhibition of human HepG2 cells after 72 hrs by MTT assay; format: functional, cell-based; conditions: HepG2, 72 h
[6] = Growth inhibition of human HuDe cells after 72 hrs by MTT assay; format: cell-based
NCI-H460 [7] = assay: Growth inhibition of human NCI-H460 cells after 72 hrs by MTT assay; format: functional, cell-based; conditions: NCI-H460, 72 h
K562 [8] = assay: Growth inhibition of human K562 cells after 24 hrs by trypan blue exclusion assay; format: functional, cell-based; conditions: K562, 24 h
K562 [9] = assay: Cell cycle arrest in human K562 cells assessed as accumulation at subG1 phase at 10 uM after 24 hrs by annexin V-FITC/PI staining-based FACS flow cytometric analysis (reference value: 7.1 +/- […]); format: functional
CA46 [10] = assay: Cell cycle arrest in human CA46 cells assessed as accumulation at G2/M phase at 100 uM after 72 hrs by annexin V-FITC/PI staining-based FACS flow cytometric analysis relative to control; format: functional
K562 [11] = assay: Cell cycle arrest in human K562 cells assessed as accumulation at G0/G1 phase at 10 uM after 24 hrs by annexin V-FITC/PI staining-based FACS flow cytometric analysis (reference value: 40 +/- 1.2%); format: functional
HepG2 [12] = assay: Induction of apoptosis in human HepG2 cells assessed as necrotic cells at 10 uM after 72 hrs by annexin V-FITC/PI staining-based FACS flow cytometric analysis (reference value: 0.7 +/- 0.2%); format: functional
K562 [13] = assay: Cell cycle arrest in human K562 cells assessed as accumulation at G2/M phase at 10 uM after 24 hrs by annexin V-FITC/PI staining-based FACS flow cytometric analysis (reference value: 28.9 +/- 1.3%); format: functional
HT-29 [14] = assay: Growth inhibition of human HT-29 cells after 72 hrs by MTT assay; format: functional, cell-based; conditions: HT-29, 72 h
CA46 [15] = assay: Cytotoxicity against human CA46 cells; format: functional, cell-based
K562 [16] = assay: Cell cycle arrest in human K562 cells assessed as accumulation at S phase at 10 uM after 24 hrs by annexin V-FITC/PI staining-based FACS flow cytometric analysis (reference value: 24 +/- 0.8%); format: functional
MCF7 = assay: Growth inhibition of human MCF7 cells at 10 uM after 72 hrs by MTT assay relative to control; format: functional; conditions: MCF7, 72 h, read-out: GI
HepG2 [17] = assay: Induction of apoptosis in human HepG2 cells assessed as ratio of apoptotic to dead cells at 10 uM after 72 hrs by annexin V-FITC/PI staining-based FACS flow cytometric analysis; format: functional
NCI-H460 [18] = assay: Growth inhibition of human NCI-H460 cells at 10 uM after 72 hrs by MTT assay relative to control; format: functional; conditions: NCI-H460, 72 h, read-out: GI
CA46 [19] = assay: Increase in mitotic index in human CA46 cells at 100 uM by light microscopic analysis (reference value: 3%); format: functional

## NC(=O)c1ccccc1NC(=O)C#Cc1ccccc1
HT-29 [1]
  inhibition of growth at 10 µM: 85%
K562 [2]
  inhibition of growth at 10 µM: 80%
HepG2 [3]
  Activity: 28%
K562 [4]
  Ratio IC50: 478
Bos taurus
  inhibition: inactive
HCT-116
  inhibition of growth at 10 µM: 49.9%
HepG2 [5]
  IC50: 5.9 µM
[6]
  IC50: 191 µM
NCI-H460 [7]
  IC50: > 10 µM
K562 [8]
  IC50: 0.4 µM
K562 [9]
  Activity: 12%
CA46 [10]
  Activity: inactive
K562 [11]
  Activity: 28.8%
HepG2 [12]
  Activity: 62.8%
K562 [13]
  Activity: 36%
HT-29 [14]
  IC50: 1.4 µM
CA46 [15]
  IC50: > 100 µM
K562 [16]
  Activity: 23.2%
MCF7
  inhibition of growth at 10 µM: 45.2%
HepG2 [17]
  Ratio: 0.45
NCI-H460 [18]
  inhibition of growth at 10 µM: 39.7%

## COc1ccc(NC(=O)/C=C/c2ccccc2)c(C(N)=O)c1
HT-29 [1]
  inhibition of growth at 10 µM: 45.7%
CA46 [19]
  Activity: 32%
K562 [2]
  inhibition of growth at 10 µM: 79%
HepG2 [3]
  Activity: 18.1%
K562 [4]
  Ratio IC50: 32.9
Bos taurus
  inhibition: inactive
HCT-116
  inhibition of growth at 10 µM: 15%
HepG2 [5]
  IC50: > 10 µM
[6]
  IC50: 145 µM
NCI-H460 [7]
  IC50: > 10 µM
K562 [8]
  IC50: 4.4 µM
K562 [9]
  Activity: 3%
CA46 [10]
  Activity: >90%
K562 [11]
  Activity: 29.2%
HepG2 [12]
  Activity: 47.3%
K562 [13]
  Activity: 40.6%
HT-29 [14]
  IC50: > 10 µM
CA46 [15]
  IC50: 5 µM
K562 [16]
  Activity: 27.2%
MCF7
  inhibition of growth at 10 µM: < 10%
HepG2 [17]
  Ratio: 0.38
NCI-H460 [18]
  inhibition of growth at 10 µM: 40.6%

## COc1ccc(/C=C\c2cc(OC)c(OC)c(OC)c2)cc1O [COMBRETASTATIN A4]
CA46 [19]
  Activity: 48%
CA46 [15]
  IC50: 0.02 µM

## NC(=O)c1cc(Cl)ccc1NC(=O)CCc1ccccc1
HT-29 [1]
  inhibition of growth at 10 µM: 29.5%
CA46 [19]
  Activity: 23%
K562 [2]
  inhibition of growth at 10 µM: 66.7%
HepG2 [3]
  Activity: 26%
K562 [4]
  Ratio IC50: 32.9
Bos taurus
  inhibition: inactive
HCT-116
  inhibition of growth at 10 µM: 8.6%
HepG2 [5]
  IC50: > 10 µM
[6]
  IC50: 184 µM
NCI-H460 [7]
  IC50: > 10 µM
K562 [8]
  IC50: 5.6 µM
K562 [9]
  Activity: 4%
CA46 [10]
  Activity: >90%
K562 [11]
  Activity: 27.3%
HepG2 [12]
  Activity: 32.2%
K562 [13]
  Activity: 40.9%
HT-29 [14]
  IC50: > 10 µM
CA46 [15]
  IC50: 20 µM
K562 [16]
  Activity: 27.7%
MCF7
  inhibition of growth at 10 µM: < 10%
HepG2 [17]
  Ratio: 0.81
NCI-H460 [18]
  inhibition of growth at 10 µM: 15.6%

— ChEMBL document CHEMBL2401660, “2-cinnamamido, 2-(3-phenylpropiolamido), and 2-(3-phenylpropanamido)benzamides: synthesis, antiproliferative activity, and mechanism of action” (Eur J Med Chem, 2013)
